Data as given in patent US12509469B2, “Compositions and methods for the treatment of pain and dependence disorders” (Ripple Therapeutics Corporation, priority 2019, dated 2025).

Legend:
[1] = Heat processing of compounds: pellet formation by heat molding; type: physicochemical; conditions: for Pellet formation by heat molding (result in words): heat molding 10° C. to 30° C. above thermal transition, pressed into cylindrical mold; for Pellet formation?: heat molding, cylindrical mold ~1 mm in height x 1 mm in diameter
Description: Compounds were formed into pellets by heat molding. Powders of Compound 1-7 and Compounds 9-12 were processed at a temperature from between about 10° C. to 30° C. above their thermal transitions (e.g., glass transition temperature (Tg) for amorphous powders or melting point (Tm) for crystalline powders) of the given compound (e.g., from about 70° C. (Compound 9) to about 220° C. (Compound 2)), and pressed into a cylindrical mold of ˜1 mm in height×1 mm in diameter. Light microscopy was used to capture images of the heat-formed pellets.
These pellets had the appropriate processing properties to be tested as articles for drug delivery applications.
Compounds 16, 22, and 23 were also tested for pellet formation using a similar method as compounds 1-7 and 9-12. […] The recovered form was soft and tacky and could not be easily handled.

[2] = Drug release from heat-molded pellets in phosphate buffered saline (PBS); type: physicochemical; conditions: heat-molded pellet, 37° C., agitation at 115 rpm, HPLC
Description: (§1) Drug release from heat-molded pellets of Compound 1 (FIG. 1A) was assessed in phosphate buffered saline (PBS). Heat-molded pellets (FIG. 1B) were placed in 20 ml glass vials and 2 ml of release buffer was added. Samples were incubated at 37° C. with constant agitation at 115 rpm. Release buffer was sampled and fully replaced with 2 ml of fresh buffer daily with the exception of days 5, 6, 12, 13, and 14 (FIG. 1C). Samples were analyzed by high performance liquid chromatography (HPLC) to quantify drug products (FIG. 1D). Cumulative release was calculated as a percentage of total mass of starting pellets and was plotted over time.
as §1, with “3-7 and Compound 9-12 were” for “1 (FIG. 1A) was”, “pellets” for “pellets (FIG. 1B)”, “on” for “daily with the exception of”, “1, 3, 7, 10,” for “5, 6, 12, 13,”, “14.” for “14 (FIG. 1C).”, “products.” for “products (FIG. 1D).”

Structure (SMILES) | Pellet formation by heat molding (result in words) [1] | Release in phosphate buffered saline (PBS): near zero order for [2] | Pellet formation? [1]
O=C(CCCCC(=O)Oc1ccc2c3c1O[C@H]1C(=O)CC[C@@]4(O)[C@@H](C2)N(CC2CC2)CC[C@]314)Oc1ccc2c3c1O[C@H]1C(=O)CC[C@@]4(O)[C@@H](C2)N(CC2CC2)CC[C@]314 [Compound 2, bis((4R,4aS,7aR,12bS)-3-(cyclopropylmethyl)-4a-hydroxy-7-oxo-2,3,4,4a,5,6,7,7a-octahydro-1H-4,12-methanobenzofuro[3,2-e]isoquinolin-9-yl) adipate] | didn't form a viscous liquid that could be pressed into a pellet |  | 
C=C1CC[C@@]2(O)[C@H]3Cc4ccc(OC(=O)CCCCC(=O)Oc5ccc6c7c5O[C@H]5C(=C)CC[C@@]8(O)[C@@H](C6)N(CC6CC6)CC[C@]758)c5c4[C@@]2(CCN3CC2CC2)[C@H]1O5 [Compound 3, bis((4R,4aS,7aS,12bS)-3-(cyclopropylmethyl)-4a-hydroxy-7-methylene-2,3,4,4a,5,6,7,7a-octohydro-1H-4,12-methanobenzofuro[3,2-e]isoquinolin-9-yl) adipate] |  | Near zero order for > 7 days | ✓ (FIG. 4B)
O=C(Oc1ccc2c3c1O[C@H]1C(=O)CC[C@@]4(O)[C@@H](C2)N(CC2CC2)CC[C@]314)C1CCC(C(=O)Oc2ccc3c4c2O[C@H]2C(=O)CC[C@@]5(O)[C@@H](C3)N(CC3CC3)CC[C@]425)CC1 (stereo partly drawn) [Compound 7, bis((4R,4aS,7aR,12bS)-3-(cyclopropylmethyl)-4a-hydroxy-7-oxo-2,3,4,4a,5,6,7,7a-octahydro-1H-4,12-methanobenzofuro[3,2-e]isoquinolin-9-yl) cyclohexane-1,4-dicarboxylate] |  | Near zero order for > 7 days | 
C=CCN1CC[C@]23c4c5ccc(OC(=O)OCC6CCC(COC(=O)Oc7ccc8c9c7O[C@H]7C(=O)CC[C@@]%10(O)[C@@H](C8)N(CC=C)CC[C@]97%10)CC6)c4O[C@H]2C(=O)CC[C@@]3(O)[C@H]1C5 (stereo partly drawn) [Compound 5, bis((4R,4aS,7aR,12bS)-3-allyl-4a-hydroxy-7-oxo-2,3,4,4a,5,6,7,7a-octahydro-1H-4,12-methanobenzofuro[3,2-e]isoquinolin-9-yl) (cyclohexane-1,4-diylbis(methylene)) bis(carbonate)] |  | Near zero order for > 7 days | 
CCC(C)(CC(=O)Oc1ccc2c3c1O[C@H]1C(=O)CC[C@@]4(O)[C@@H](C2)N(CC2CC2)CC[C@]314)CC(=O)Oc1ccc2c3c1O[C@H]1C(=O)CC[C@@]4(O)[C@@H](C2)N(CC2CC2)CC[C@]314 [Compound 10, bis((4R,4aS,7aR,12bS)-3-(cyclopropylmethyl)-4a-hydroxy-7-oxo-2,3,4,4a,5,6,7,7a-octohydro-1H-4,12-methanobenzofuro[3,2-e]isoquinolin-9-yl) 3-ethyl-3-methylpentonedioate] |  | Near zero order for > 7 days | ✓ (FIG. 11B)
CCN[C@H]1C[C@H](C)S(=O)(=O)c2sc(S(=O)(=O)NC(=O)OCCCCCCCCOC(=O)NS(=O)(=O)c3cc4c(s3)S(=O)(=O)[C@@H](C)C[C@@H]4NCC)cc21 [Compound 22, 8-(((((4S,6S)-4-(ethylamino)-6-methyl-7,7-dioxido-5,6-dihydro-4H-thieno[2,3-b]thiopyron-2-yl)sulfonyl)carbamoyl)oxy)octyl (((4S,6S)-4-(ethylamino)-6-methyl-7,7-dioxido-5,6-dihydro-4H-thieno[2,3-b]thiopyron-2-yl)sulfonyl)carbomate] | Neither compound formed a viscous liquid that could be pressed into a pellet |  | 
O=C(CCCCCCCCCCCCC(=O)Oc1ccc2c3c1O[C@H]1C(=O)CC[C@@]4(O)[C@@H](C2)N(CC2CC2)CC[C@]314)Oc1ccc2c3c1O[C@H]1C(=O)CC[C@@]4(O)[C@@H](C2)N(CC2CC2)CC[C@]314 [Compound 9, bis((4R,4aS,7aR,12bS)-3-(cyclopropylmethyl)-4a-hydroxy-7-oxo-2,3,4,4a,5,6,7,7a-octahydro-1H-4,12-methanobenzofuro[3,2-e]isoquinolin-9-yl) tetradecanedioate] |  | Near zero order for > 7 days | ✓ (FIG. 10B)
O=C(Oc1ccc2c3c1O[C@H]1C(=O)CC[C@@]4(O)[C@@H](C2)N(CC2CC2)CC[C@]314)c1ccc(C(=O)Oc2ccc3c4c2O[C@H]2C(=O)CC[C@@]5(O)[C@@H](C3)N(CC3CC3)CC[C@]425)cc1 [Compound 8, bis((4R,4aS,7aR,12bS)-3-(cyclopropylmethyl)-4a-hydroxy-7-oxo-2,3,4,4a,5,6,7,7a-octahydro-1H-4,12-methanobenzofuro[3,2-e]isoquinolin-9-yl) terephthalate] | did not form a heat processed pellet |  | 
O=C(CCCCCCCCC(=O)Oc1ccc2c3c1O[C@H]1C(=O)CC[C@@]4(O)[C@@H](C2)N(CC2CC2)CC[C@]314)Oc1ccc2c3c1O[C@H]1C(=O)CC[C@@]4(O)[C@@H](C2)N(CC2CC2)CC[C@]314 [Compound 6, bis((4R,4aS,7aR,12bS)-3-(cyclopropylmethyl)-4a-hydroxy-7-oxo-2,3,4,4a,5,6,7,7a-octahydro-1H-4,12-methanobenzofuro[3,2-e]isoquinolin-9-yl) decanedioate] |  | Near zero order for > 7 days | ✓ (FIG. 7B)
COc1ccc2cc([C@H](C)C(=O)OCC3CCC(COC(=O)[C@@H](C)c4ccc5cc(OC)ccc5c4)CC3)ccc2c1 (stereo partly drawn) [Compound 16, cyclohexane-1,4-diylbis(methylene) (2S,2S)-bis(2-(6-methoxynaphthalen-2-yl)proponoote)] | deformed during the process of removal from the mold |  | 
C=CCN1CC[C@]23c4c5ccc(OC(=O)CCCCC(=O)Oc6ccc7c8c6O[C@H]6C(=O)CC[C@@]9(O)[C@@H](C7)N(CC=C)CC[C@]869)c4O[C@H]2C(=O)CC[C@@]3(O)[C@H]1C5 [Compound 1, bis((4R,4aS,7aR,12bS)-3-allyl-4a-hydroxy-7-oxo-2,3,4,4a,5,6,7,7a-octahydro-1H-4,12-methanobenzofuro[3,2-e]isoquinolin-9-yl) adipate] |  | Near zero order for > 7 days | ✓ (FIG. 1B)
C=CCN1CC[C@]23c4c5ccc(OC(=O)CCCCCCCCC(=O)Oc6ccc7c8c6O[C@H]6C(=O)CC[C@@]9(O)[C@@H](C7)N(CC=C)CC[C@]869)c4O[C@H]2C(=O)CC[C@@]3(O)[C@H]1C5 [Compound 4, bis((4R,4aS,7aR,12bS)-3-allyl-4a-hydroxy-7-oxo-2,3,4,4a,5,6,7,7a-octahydro-1H-4,12-methanobenzofuro[3,2-e]isoquinolin-9-yl) decanedioate] |  | Near zero order for > 7 days | ✓ (FIG. 5B)
O=C(OCCCCCCOC(=O)Oc1ccc2c3c1O[C@H]1C(=O)CC[C@@]4(O)[C@@H](C2)N(CC2CC2)CC[C@]314)Oc1ccc2c3c1O[C@H]1C(=O)CC[C@@]4(O)[C@@H](C2)N(CC2CC2)CC[C@]314 [Compound 11, bis((4R,4aS,7aR,12bS)-3-(cyclopropylmethyl)-4a-hydroxy-7-oxo-2,3,4,4a,5,6,7,7a-octohydro-1H-4,12-methanobenzofuro[3,2-e]isoquinolin-9-yl) hexane-1,6-diyl bis(carbonate)] |  | Near zero order for > 7 days | ✓ (FIG. 12B)
O=C(OCC1CCC(COC(=O)Oc2ccc3c4c2O[C@H]2C(=O)CC[C@@]5(O)[C@@H](C3)N(CC3CC3)CC[C@]425)CC1)Oc1ccc2c3c1O[C@H]1C(=O)CC[C@@]4(O)[C@@H](C2)N(CC2CC2)CC[C@]314 (stereo partly drawn) [Compound 12, cyclohexane-1,4-diylbis(methylene) bis((4R,4aS,7aR,12bS)-3-(cyclopropylmethyl)-4a-hydroxy-7-oxo-2,3,4,4a,5,6,7,7a-octohydro-1H-4,12-methanobenzofuro[3,2-e]isoquinolin-9-yl) bis(carbonate)] |  | Near zero order for > 7 days | 
